Assay results: US10689354B2, “Aminoazole derivative” (Teijin Pharma Limited, priority 2015, dated 2020)

What was measured:
[1] = target: T1, human androgen receptor (Homo sapiens, UniProt P10275); assay: Reporter assay of an androgen receptor responsive sequence (luciferase, transiently transfected HEK293 cells); format: cell-based; details: 24 hours incubation, relative to activity of 100 nM DHT, read-out: AR transcriptive activity (pEC50) (converted)
T1 construct: expressed in transfected cells; host or cells: HEK293
T1 sequence (P10275 1-920): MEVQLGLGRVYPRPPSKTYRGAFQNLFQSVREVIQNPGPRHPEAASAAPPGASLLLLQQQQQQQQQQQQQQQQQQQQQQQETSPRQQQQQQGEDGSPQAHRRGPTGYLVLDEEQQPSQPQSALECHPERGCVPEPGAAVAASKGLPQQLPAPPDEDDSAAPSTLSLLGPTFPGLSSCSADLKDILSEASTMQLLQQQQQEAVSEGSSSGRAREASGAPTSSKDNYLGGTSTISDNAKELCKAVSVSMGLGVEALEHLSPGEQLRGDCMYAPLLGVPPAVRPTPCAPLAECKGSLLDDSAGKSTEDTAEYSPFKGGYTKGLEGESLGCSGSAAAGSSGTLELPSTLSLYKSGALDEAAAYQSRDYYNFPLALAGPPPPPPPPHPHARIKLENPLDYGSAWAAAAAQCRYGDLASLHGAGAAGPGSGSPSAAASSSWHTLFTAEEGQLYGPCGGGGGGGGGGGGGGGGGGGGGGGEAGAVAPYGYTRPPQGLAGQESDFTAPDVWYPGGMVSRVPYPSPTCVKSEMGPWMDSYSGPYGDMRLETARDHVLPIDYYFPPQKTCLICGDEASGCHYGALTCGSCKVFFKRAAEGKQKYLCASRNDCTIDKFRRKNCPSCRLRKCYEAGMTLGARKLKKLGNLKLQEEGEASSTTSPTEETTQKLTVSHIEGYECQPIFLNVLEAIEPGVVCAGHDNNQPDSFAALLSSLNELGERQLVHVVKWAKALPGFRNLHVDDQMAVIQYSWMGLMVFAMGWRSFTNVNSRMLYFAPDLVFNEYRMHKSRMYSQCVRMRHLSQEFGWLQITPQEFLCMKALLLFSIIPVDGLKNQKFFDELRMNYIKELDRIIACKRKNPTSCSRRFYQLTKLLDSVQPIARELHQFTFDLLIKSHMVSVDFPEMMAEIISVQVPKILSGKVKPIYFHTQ
Method in brief: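 Agonism scored as pEC50, fitted by 4-parameter curve against the response to 100 nM DHT, from dual-luciferase readout after 24 h compound treatment. Cells were HEK293 co-transfected (3 h) with human AR expression vector, androgen-responsive firefly reporter and Renilla control, in charcoal-stripped serum.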

[2] = target: T2, androgen receptor (AR-LBD) (Rattus norvegicus, UniProt P15207); assay: Evaluation of androgen receptor affinity (PolarScreen Androgen Receptor Competitor Assay Kit, Red; fluorescence polarization); details: 22° C. for 5 hours, relative to binding rate of 1 μM DHT, read-out: AR affinity (pEC50) (converted)
T2 construct: 5 μL of 2×AR-LBD/Fluoromone AL Red Complex contained in the kit; purchased Invitrogen
T2 sequence (P15207 651-882 limits assumed): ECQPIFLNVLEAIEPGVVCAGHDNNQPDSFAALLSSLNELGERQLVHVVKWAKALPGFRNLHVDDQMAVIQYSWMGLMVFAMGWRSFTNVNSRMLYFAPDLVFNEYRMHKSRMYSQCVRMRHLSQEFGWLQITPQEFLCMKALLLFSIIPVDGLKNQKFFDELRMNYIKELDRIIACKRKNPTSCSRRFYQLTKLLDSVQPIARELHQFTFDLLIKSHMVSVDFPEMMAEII
Method in brief: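 Duplicate wells of test compound were mixed with the kit's rat AR-LBD–Fluoromone AL Red tracer complex and left 5 hours at 22 °C before polarization was read. A 4-parameter fit gave pEC50, with binding rate referenced to 1 μM dihydrotestosterone.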

| Compound | EC50 [1] | EC50 [2] |
| --- | --- | --- |
| CS(=O)(=O)NC(=O)c1nc(N(Cc2cc3ccccc3s2)c2ccc(C#N)cc2)sc1Br [Compound 609, 2-[N-(benzothiophen-2-ylmethyl)-4-cyano-anilino]-5-bromo-N-methylsulfonyl-thiazole-4-carboxamide] | 39.8 nM | 31.6 nM |
| Cc1oc(N(Cc2ccc(F)cc2)c2ccc(C#N)cc2)nc1C(=O)NS(C)(=O)=O [Compound 610, 2-[4-cyano-N-[(4-fluorophenyl)methyl]anilino]-5-methyl-N-methylsulfonyl-oxazole-4-carboxamide] | 2510 nM | 100 nM |
| Cc1oc(N(Cc2cccc(Cl)c2)c2ccc(C#N)cc2)nc1C(=O)NS(C)(=O)=O [Compound 611, 2-[N-[(3-chlorophenyl)methyl]-4-cyano-anilino]-5-methyl-N-methylsulfonyl-oxazole-4-carboxamide] | 2000 nM | 79.4 nM |
| Cc1oc(N(Cc2cccc(F)c2)c2ccc(C#N)cc2)nc1C(=O)NS(C)(=O)=O [Compound 612, 2-[4-cyano-N-[(3-fluorophenyl)methyl]anilino]-5-methyl-N-methylsulfonyl-oxazole-4-carboxamide] | 3980 nM | 126 nM |
| Cc1oc(N(Cc2cccc(OC(F)(F)F)c2)c2ccc(C#N)cc2)nc1C(=O)NS(C)(=O)=O [Compound 613, 2-[4-cyano-N-[[3-(trifluoromethoxy)phenyl]methyl]anilino]-5-methyl-N-methylsulfonyl-oxazole-4-carboxamide] | > 10000 nM | 25.1 nM |
| Cc1oc(N(Cc2ccccc2OC(F)F)c2ccc(C#N)cc2)nc1C(=O)NS(C)(=O)=O [Compound 614, 2-[4-cyano-N-[[2-(difluoromethoxy)phenyl]methyl]anilino]-5-methyl-N-methylsulfonyl-oxazole-4-carboxamide] | > 10000 nM | 200 nM |
| Cc1oc(N(Cc2ccc3ncsc3c2)c2ccc(C#N)cc2)nc1C(=O)NS(C)(=O)=O [Compound 616, 2-[N-(1,3-benzothiazol-6-ylmethyl)-4-cyano-anilino]-5-methyl-N-methylsulfonyl-oxazole-4-carboxamide] | > 10000 nM | 251 nM |
| Cc1oc(N(Cc2cccc(C#N)c2)c2ccc(C#N)cc2)nc1C(=O)NS(C)(=O)=O [Compound 617, 2-[4-cyano-N-[(3-cyanophenyl)methyl]anilino]-5-methyl-N-methylsulfonyl-oxazole-4-carboxamide] | > 10000 nM | 251 nM |
| Cc1oc(N(Cc2cc3ccccc3s2)c2ccc(C#N)cc2)nc1C(=O)NS(C)(=O)=O [Compound 618, 2-[N-(benzothiophen-2-ylmethyl)-4-cyano-anilino]-5-methyl-N-methylsulfonyl-oxazole-4-carboxamide] | 126 nM | 20 nM |
| Cc1oc(N(Cc2ccccc2)c2ccc(C(F)(F)F)nc2)nc1C(=O)NS(C)(=O)=O [Compound 620, 2-[benzyl-[6-(trifluoromethyl)-3-pyridyl]amino]-5-methyl-N-methylsulfonyl-oxazole-4-carboxamide] | > 10000 nM | 631 nM |
| Cc1oc(N(CC2CCC(F)(F)CC2)c2ccc(C#N)cc2)nc1C(=O)NS(C)(=O)=O [Compound 621, 2-[4-cyano-N-[(4,4-difluorocyclohexyl)methyl]anilino]-5-methyl-N-methylsulfonyl-oxazole-4-carboxamide] | > 10000 nM | > 2000 nM |
| Cc1oc(N(CCC2CCCC2)c2ccc(C#N)cc2)nc1C(=O)NS(C)(=O)=O [Compound 622, 2-[4-cyano-N-(2-cyclopentylethyl)anilino]-5-methyl-N-methylsulfonyl-oxazole-4-carboxamide] | > 10000 nM | 79.4 nM |
| CCc1oc(N(Cc2ccc(Cl)cc2)c2ccc(C#N)cc2)nc1C(=O)NS(C)(=O)=O [Compound 623, 2-[N-[(4-chlorophenyl)methyl]-4-cyano-anilino]-5-ethyl-N-methylsulfonyl-oxazole-4-carboxamide] | 158 nM | 31.6 nM |
| Cc1oc(N(CCc2ccccc2)c2ccc(C#N)cc2)nc1C(=O)NS(C)(=O)=O [Compound 625, 2-[4-cyano-N-(2-phenylethyl)anilino]-5-methyl-N-methylsulfonyl-oxazole-4-carboxamide] | 3980 nM | 251 nM |
| CCc1oc(N(Cc2cc3ccccc3s2)c2ccc(C#N)cc2)nc1C(=O)NS(C)(=O)=O [Compound 626, 2-[N-(benzothiophen-2-ylmethyl)-4-cyano-anilino]-5-ethyl-N-methylsulfonyl-oxazole-4-carboxamide] | 79.4 nM | 15.8 nM |
| CCS(=O)(=O)NC(=O)c1nc(N(Cc2ccc(Cl)cc2)c2ccc(C#N)cc2)oc1C [Compound 627, 2-[N-[(4-chlorophenyl)methyl]-4-cyano-anilino]-N-ethylsulfonyl-5-methyl-oxazole-4-carboxamide] | 1000 nM | 50.1 nM |
| Cc1oc(N(Cc2ccc(Cl)cc2)c2ccc(C#N)cc2)nc1C(=O)NS(=O)(=O)C1CC1 [Compound 628, 2-[N-[(4-chlorophenyl)methyl]-4-cyano-anilino]-N-cyclopropylsulfonyl-5-methyl-oxazole-4-carboxamide] | > 10000 nM | 200 nM |
| Cc1oc(N(Cc2nc3ccccc3s2)c2ccc(C#N)cc2)nc1C(=O)NS(C)(=O)=O [Compound 630, 2-[N-(1,3-benzothiazol-2-ylmethyl)-4-cyano-anilino]-5-methyl-N-methylsulfonyl-oxazole-4-carboxamide] | 2510 nM | 158 nM |
| CCc1oc(N(Cc2cccc(Cl)c2)c2ccc(C#N)cc2)nc1C(=O)NS(C)(=O)=O [Compound 631, 2-[N-[(3-chlorophenyl)methyl]-4-cyano-anilino]-5-ethyl-N-methylsulfonyl-oxazole-4-carboxamide] | 794 nM | 39.8 nM |
| CCc1oc(N(Cc2ccc(OC(F)(F)F)cc2)c2ccc(C#N)cc2)nc1C(=O)NS(C)(=O)=O [Compound 632, 2-[4-cyano-N-[[4-(trifluoromethoxy)phenyl]methyl]anilino]-5-ethyl-N-methylsulfonyl-oxazole-4-carboxamide] | 1000 nM | 39.8 nM |
| CCc1oc(N(Cc2ccc(Cl)c(Cl)c2)c2ccc(C#N)cc2)nc1C(=O)NS(C)(=O)=O [Compound 633, 2-[4-cyano-N-[(3,4-dichlorophenyl)methyl]anilino]-5-ethyl-N-methylsulfonyl-oxazole-4-carboxamide] | 126 nM | 31.6 nM |
| CCc1oc(N(Cc2ccc(OC(F)F)cc2)c2ccc(C#N)cc2)nc1C(=O)NS(C)(=O)=O [Compound 634, 2-[4-cyano-N-[[4-(difluoromethoxy)phenyl]methyl]anilino]-5-ethyl-N-methylsulfonyl-oxazole-4-carboxamide] | 398 nM | 39.8 nM |
| CCc1oc(N(Cc2ccc(OC(F)F)cn2)c2ccc(C#N)cc2)nc1C(=O)NS(C)(=O)=O [Compound 635, 2-[4-cyano-N-[[5-(difluoromethoxy)-2-pyridyl]methyl]anilino]-5-ethyl-N-methylsulfonyl-oxazole-4-carboxamide] | > 10000 nM | 398 nM |
| CCc1oc(N(Cc2ccc(Br)cn2)c2ccc(C#N)cc2)nc1C(=O)NS(C)(=O)=O [Compound 636, 2-[N-[(5-bromo-2-pyridyl)methyl]-4-cyano-anilino]-5-ethyl-N-methylsulfonyl-oxazole-4-carboxamide] | 1580 nM | 398 nM |
| CCc1oc(N(Cc2ccccc2OC(F)F)c2ccc(C#N)cc2)nc1C(=O)NS(C)(=O)=O [Compound 637, 2-[4-cyano-N-[[2-(difluoromethoxy)phenyl]methyl]anilino]-5-ethyl-N-methylsulfonyl-oxazole-4-carboxamide] | > 10000 nM | 158 nM |
